Assay results from paper PMC8846325, “A Photoactivable Natural Product with Broad Antiviral Activity against Enveloped Viruses, Including Highly Pathogenic Coronaviruses” (Antimicrobial Agents and Chemotherapy, 2022).

Key:
HCoV-229E [1] = test: HCoV-229E-Luc infection inhibition luciferase assay; format: cell-based; conditions: for antiviral activity against HCoV-229E-Luc, screening of related compounds: Huh-7 cells, 1, 5, 10 µM, light exposure; for light dependence of antiviral effect: HCoV-229E, light versus dark
[2] = MTS cell toxicity assay, Huh-7 cells; format: cell-based; conditions: human, Huh-7 cells, 24 h
Description: (§1) A total of 6 × 10^4 Huh-7, Vero-E6, and Vero-81 cells were seeded in 96-well plates and incubated for 16 h at 37°C in a 5% CO2 incubator. The cells were then treated with increasing concentrations of the compound of interest. One hour after inoculation, cells were taken out of the incubator to be exposed to the white light of a biosafety cabinet (BSC) for 10 min, after which cells were further incubated in the dark at 37°C and 5% CO2 for 23 h. The BSC’s light source lamp consists of one fluorescent tube of 36 W, 3,350 lumen, white light. An MTS [3-(4,5-dimethylthiazol-2-yl)-5-(3-carboxymethoxyphenyl)-2-(4-sulfophenyl)-2H-tetrazolium]-based viability assay (Cell Titer 96 aqueous nonradioactive cell proliferation assay; Promega) was performed as recommended by the manufacturer. The absorbance of formazan at 490 nm was detected using a plate reader (ELX 808 Bio-Tek Instruments Inc.). Each measure was performed in triplicate, and each experiment was repeated at least 3 times.
(§2) 6×104 Huh-7, Vero-E6 and Vero-81 cells were seeded in 96-well plates and incubated for 16 h at 37 °C 5% CO2 incubator. The cells were then treated with increasing concentrations of the compound of interest. One hour after inoculation, cells were either left in the incubator (dark condition) or taken out to be exposed to the white light of the biosafety cabinet (BSC) for 10 min (light condition), after which cells were further incubated in the dark at 37 °C 5% CO2 for 23 h. BSC’s light source lamp consists of one fluorescent tube of 36W, 3350 lumen white light. An MTS [3-(4,5-dimethylthiazol-2-yl)-5-(3-carboxymethoxyphenyl)-2-(4-sulfophenyl)- 2H-tetrazolium]-based viability assay (Cell Titer 96 Aqueous non-radioactive cell proliferation assay, Promega) was performed as recommended by the manufacturer. The absorbance of formazan at 490 nm was detected using a plate reader (ELX 808 Bio-Tek […]
(§3) Instruments Inc). […]

Huh-7 cells = test: MTS cell toxicity assay, Huh-7 cells; format: cell-based; conditions: for CC50: 24 h, light exposure
Description: as §1, §2, §3

HCoV-229E [3] = test: Quencher assay (singlet oxygen quenchers); format: cell-based
HCoV-229E [4] = test: HCoV-229E infectious titers (TCID50); format: cell-based
[5] = test system: pseudotyped viral particles with envelope proteins of VSV, HCV, SARS-CoV-2, and MERS-CoV; format: cell-based
HCoV-229E [6] = test: Time-of-addition assay, HCoV-229E-Luc; format: cell-based
coxsackievirus (CVB4) = format: cell-based, Coxsackievirus B4
HCoV-229E [7] = test: Trypsin-induced virus-cell fusion assay; format: cell-based; conditions: Huh-7 cells, NH4Cl, 0.5 and 1 μM
MERS-CoV [8] = test: microbe, parasite or virus in culture; format: cell-based
SARS-CoV-2 [9] = format: cell-based
hepatitis C virus = format: cell-based, HCV
Vero-E6 cells = test: MTS cell toxicity assay, Vero-E6 cells; format: cell-based; conditions: 24 h in incubator without light exposure
Description: as §1
(§4) 6×104 Huh-7, Vero-E6 and Vero-81 cells were seeded in 96-well plates and incubated for 16 h at 37 °C 5% CO2 incubator. The cells were then treated with increasing concentrations of the compound of interest. […] The absorbance of formazan at 490 nm was detected using a plate reader (ELX 808 Bio-Tek […]

[10] = MTS cell toxicity assay, Vero-E6 cells; format: cell-based; conditions: African green monkey, 24 h, 10 min light exposure after 1 h, read-out: 50% cytotoxic concentration (CC50)
Description: as §1, §4

HCoV-229E [11] = test: White light exposure kinetics; format: cell-based
[12] = test system: Mucilair primary human bronchial epithelial cells; test: Mucilair toxicity assays (LDH secretion, transepithelial electrical resistance); conditions: 0.25 and 2.5 μM, up to 72 h
SARS-CoV-2 [13] = format: cell-based; remark: listed apart in the source
SARS-CoV-2 spike protein = SARS-CoV-2 spike protein (Severe acute respiratory syndrome coronavirus 2, UniProt P0DTC2); format: cell-based
yellow fever virus (YFV) = format: cell-based; conditions: 1 and 2.5 μM, light 30 min prior to inoculation
SARS-CoV-2 [14] = test: microbe, parasite or virus in culture; format: cell-based
MERS-CoV [15] = format: cell-based; conditions: Mucilair cells, 2.5 μM, 72 h postinoculation
[16] = MTS cell toxicity assay, Vero-81 cells; format: cell-based; conditions: African green monkey, 24 h, 10 min light exposure after 1 h, read-out: 50% cytotoxic concentration (CC50)
Description: as §1, §4

Vero-81 cells = test: MTS cell toxicity assay, Vero-81 cells; format: cell-based; conditions: 24 h in incubator without light exposure
Description: as §1, §4

HCoV-229E [17] = test: Attachment assay (bound virions by qRT-PCR); format: cell-based; conditions: Huh-7-TMPRSS2 cells, 4°C 1 h, 4.1 and 8.2 μM
Sindbis virus (SINV) = format: cell-based
[18] = light exposure, read-out: CC50 (μM) 24 h
[19] = against HCoV-229E, Huh-7 cells, normal white light exposure, read-out: IC50
[20] = Huh-7-TMPRSS2 cells, Pba 2 μM, BSC light

In the case of C1=Cc2nc1cc1ccc([nH]1)c(-c1ccccc1)c1nc(cc3ccc([nH]3)c2-c2ccccc2)C=C1 [5,15-DPP], the “antiviral activity against HCoV-229E-Luc, screening of related compounds” value (from here on “antiviral activity against HCoV-229E-Luc”) (HCoV-229E [1]) is reported as “not active at the tested concentrations”.
In the case of C=Cc1c(C)c2cc3nc(c(CC(=O)O)c4[nH]c(cc5nc(cc1[nH]2)C(C)=C5CC)c(C)c4C(=O)O)[C@@H](CCC(=O)O)[C@@H]3C [Chlorin e6, chlorin e6], the CC50 at 24 h [2, 18] is reported as 21.4 µM, the “light dependence of antiviral effect” value (HCoV-229E [1]) is reported as “light-dependent antiviral effect” and the IC50 (HCoV-229E [1]; Human coronavirus 229E, Huh-7) is reported as 720 nM.
With C=Cc1c(C)c2cc3nc(c4c5[n-]c(cc6nc(cc1[n-]2)C(C=O)=C6CC)c(C)c5C(=O)[C@@H]4C(=O)OC)[C@@H](CCC(=O)OC/C=C(\C)CCC[C@H](C)CCC[C@H](C)CCCC(C)C)[C@@H]3C.[Mg+2] [Chlorophyll b] the “antiviral activity against HCoV-229E-Luc” value (HCoV-229E [1]) was “not active at the tested concentrations”.
With CCC1=C(C)c2cc3[nH]c(cc4nc(cc5c(CCC(=O)O)c(C)c(cc1n2)n5C)C(CCC(=O)O)=C4C)c(C)c3CC [N-Methyl mesoporphyrin IX, N-methyl mesoporphyrin IX] the CC50 (Huh-7 cells; Huh-7 cells) was over 80 µM, the “light dependence of antiviral effect” value (HCoV-229E [1]) was “light-dependent antiviral effect” and the “antiviral activity under dark conditions” value (HCoV-229E [1]; Huh-7 cells, dark) was “showed antiviral activity under dark conditions”. It also gave an IC50 (HCoV-229E [1]; [19]) of 1250 nM.
For [N-]=[N+]=[N-].[Na+] [NaN3], the “effect of quencher on antiviral action of Pba” value (HCoV-229E [3]) was “able to reduce the action of Pba”.
For C=Cc1c(C)c2cc3nc(c4c5[nH]c(cc6nc(cc1[nH]2)C(C)=C6CC)c(C)c5C(=O)[C@@H]4C(=O)OC)[C@@H](CCC(=O)O)[C@@H]3C [Pba, pheophorbide a], the “selectivity index (SI), HCoV-229E” value (HCoV-229E [4]; CC50 Huh-7 / IC50 infectious titers) was 44, the IC50 (HCoV-229E [4]; Human coronavirus 229E, Huh-7, 10 min, read-out: IC50, HCoV-229E infectious titers) was 100 nM and the pseudoparticle infection [5] was “inhibited pseudoparticle infection regardless of the nature of the viral envelope protein but only under light conditions”. The “infectivity, compound added more than 2 h after inoculation” value (HCoV-229E [6]) was “normal levels of infectivity”, the “inhibition of infection, compound added before inoculation (pretreatment of the cells)” value (HCoV-229E [6]; [20]) was “no inhibition of infection” and the “inhibition of infection, compound present during inoculation” value (HCoV-229E [6]; [20]) was “strong inhibition of infection”. The “antiviral activity on CVB4 (nonenveloped)” value (coxsackievirus (CVB4)) was “not active”, the “infection under trypsin-mediated fusion conditions” value (HCoV-229E [7]) was “strongly inhibited infection levels” and the “selectivity index, MERS-CoV” value (MERS-CoV [8]) was 24. For the same compound, the IC50 (MERS-CoV [8]; Middle East respiratory syndrome-related coronavirus, Huh-7, read-out: IC50, MERS-CoV infectious titers) was 180 nM, the CC50 at 24 h ([2]; 10 min light exposure after 1 h, read-out: 50% cytotoxic concentration (CC50)) was 4.4 ± 1.2 µM and the CC50 at 24 h [2, 18] was 6.08 µM. The “concentrations at which no toxicity was exhibited” value (Huh-7 cells; Huh-7 cells, 24 h in incubator without light exposure) was “up to 120 μM”, the “decrease of viral titers, SARS-CoV-2” value (SARS-CoV-2 [9]) was “more than 1 log10” and the “viral RNA levels of SARS-CoV-2” value (SARS-CoV-2 [9]) was “significantly decreased”. The “antiviral activity on HCV (enveloped)” value (hepatitis C virus) was “clear antiviral effect”, the “concentrations at which no toxicity was exhibited” value (Vero-E6 cells) was “up to 120 μM” and the CC50 at 24 h [10] was 5800 ± 1900 nM. For the same compound, the “antiviral effect at inactive concentration with long light exposure” value (HCoV-229E [11]; 0.02 μM, 80 min light exposure) was “no antiviral effect”, the “inhibitory effect with longer light exposure times” value (HCoV-229E [11]; 0.02, 0.2, 2 μM, light 5 to 80 min) was “increased inhibitory effect” and the “activity against HCoV-229E-Luc, extracts and fractions” value (HCoV-229E [1]; Huh-7 cells, 25 μg/ml, 7 h postinoculation) was “the most active”. The “antiviral activity in the dark” value (HCoV-229E [1]; Huh-7 cells, dark, 10 μM) was “antiviral activity was observed”, the “antiviral activity in presence or absence of TMPRSS2” value (HCoV-229E [1]; Huh-7 versus Huh-7-TMPRSS2 cells) was “No difference in antiviral activity” and the IC50 (HCoV-229E [1]; Human coronavirus 229E, Huh-7) was 540 nM. For the same compound, the IC50 (HCoV-229E [1]; Human coronavirus 229E, Huh-7, 7 h, read-out: 50% inhibitory concentration (IC50) against HCoV-229E-Luc) was 510 nM, the “antiviral activity after pretreatment of virus versus no pretreatment” value (HCoV-229E [1]; virus preincubated 30 min with 2 μM, diluted to 0.2 μM for inoculation, compared with 0.2 μM directly, Huh-7 cells) was “much stronger” and the “toxicity (LDH secretion and transepithelial electrical resistance)” value [12] was “No toxicity was observed”. The “infectivity, compound added more than 2 h after inoculation” value (SARS-CoV-2 [13]) was “normal levels of infectivity”, the “inhibition of infection, compound added before inoculation (pretreatment of the cells)” value (SARS-CoV-2 [13]) was “no inhibition of infection” and the “inhibition of infection, compound present during inoculation” value (SARS-CoV-2 [13]) was “strong inhibition of infection”. For the same compound, the “spike-induced cell-cell fusion (syncytium formation)” value (SARS-CoV-2 spike protein) was “cannot prevent cell-cell fusion”, the “antiviral activity on YFV (enveloped)” value (yellow fever virus (YFV)) was “clear antiviral effect” and the “selectivity index, SARS-CoV-2” value (SARS-CoV-2 [14]) was 32. For the same compound, the IC50 (SARS-CoV-2 [14]; Severe acute respiratory syndrome coronavirus 2, Vero C1008, read-out: IC50, SARS-CoV-2 infectious titers) was 180 nM, the “decrease of viral titers, MERS-CoV” value (MERS-CoV [15]) was “more than 1 log10” and the “viral RNA levels of MERS-CoV” value (MERS-CoV [15]) was “significantly decreased”. The CC50 at 24 h [16] was 5500 ± 2000 nM, the “concentrations at which no toxicity was exhibited” value (Vero-81 cells) was “up to 120 μM” and the “virus attachment (bound HCoV-229E RNA levels)” value (HCoV-229E [17]) was “only a slight and nonsignificant decrease in RNA levels”. For the same compound, the “antiviral activity on SINV (enveloped)” value (Sindbis virus (SINV)) was “clear antiviral effect”.
With C=Cc1c(C)c2cc3nc(c4c5[nH]c(cc6nc(cc1[nH]2)C(C)=C6CC)c(C)c5C(=O)C4)[C@@H](CCC(=O)O)[C@@H]3C [PyroPba, pyropheophorbide a] the CC50 at 24 h [2, 18] was 2.67 µM, the “toxicity on Huh-7 cells, screening of related compounds” value (Huh-7 cells; 5, 10, and 25 µM, light) was “toxic at tested concentrations” and the “light dependence of antiviral effect” value (HCoV-229E [1]) was “light-dependent antiviral effect”. It also gave an IC50 (HCoV-229E [1]; Human coronavirus 229E, Huh-7) of 350 nM.
With O=C1OC2(c3cc(I)c(O)c(I)c3Oc3c2cc(I)c(O)c3I)c2c(Cl)c(Cl)c(Cl)c(Cl)c21 [Rose Bengale] the CC50 (Huh-7 cells; Huh-7 cells) was over 80 µM, the “antiviral activity against HCoV-229E-Luc” value (HCoV-229E [1]) was “moderate antiviral activity” and the IC50 (HCoV-229E [1]; [19]) was 2860 nM.
